Active and inactive are the calls of the source. The rule behind the calls is not given here.
System: CCRIS mutagenicity, Ames/micronucleus/aberration tests
Experiment: CCRIS mutagenicity studies
Conditions: Method: PREINCUBATION
[1] = Test System: AMES SALMONELLA TYPHIMURIUM, Strain/Indicator: TA98, Metabolic Activation: NONE
[2] = Test System: AMES SALMONELLA TYPHIMURIUM, Strain/Indicator: TA100, Metabolic Activation: NONE
[3] = Test System: AMES SALMONELLA TYPHIMURIUM, Strain/Indicator: TA1535, Metabolic Activation: NONE
[4] = Test System: AMES SALMONELLA TYPHIMURIUM, Strain/Indicator: TA1537, Metabolic Activation: NONE

Measured: mutagenic call

CCOc1cc(C=O)ccc1O
inactive: Test System: AMES SALMONELLA TYPHIMURIUM, Strain/Indicator: TA97, Metabolic Activation: NONE inactive; negative | Test System: AMES SALMONELLA TYPHIMURIUM, Strain/Indicator: TA97, Metabolic Activation: RAT, LIVER, S-9, AROCLOR 1254 inactive; negative | [1] inactive; negative | Test System: AMES SALMONELLA TYPHIMURIUM, Strain/Indicator: TA98, Metabolic Activation: RAT, LIVER, S-9, PHENOBARBITAL AND BETA-NAPHTHOFLAVONE inactive; negative | [2] inactive; negative | Test System: AMES SALMONELLA TYPHIMURIUM, Strain/Indicator: TA100, Metabolic Activation: RAT, LIVER, S-9, PHENOBARBITAL AND BETA-NAPHTHOFLAVONE inactive; negative | Test System: AMES SALMONELLA TYPHIMURIUM, Strain/Indicator: TA102, Metabolic Activation: NONE inactive; negative | Test System: AMES SALMONELLA TYPHIMURIUM, Strain/Indicator: TA102, Metabolic Activation: RAT, LIVER, S-9, AROCLOR 1254 inactive; negative | Test System: AMES SALMONELLA TYPHIMURIUM, Strain/Indicator: TA102, Metabolic Activation: RAT, LIVER, S-9, PHENOBARBITAL AND BETA-NAPHTHOFLAVONE inactive; negative | Test System: AMES SALMONELLA TYPHIMURIUM, Strain/Indicator: TA104, Metabolic Activation: NONE inactive; negative | Test System: AMES SALMONELLA TYPHIMURIUM, Strain/Indicator: TA104, Metabolic Activation: RAT, LIVER, S-9, PHENOBARBITAL AND BETA-NAPHTHOFLAVONE inactive; negative | [3] inactive; negative | Test System: AMES SALMONELLA TYPHIMURIUM, Strain/Indicator: TA1535, Metabolic Activation: RAT, LIVER, S-9, PHENOBARBITAL AND BETA-NAPHTHOFLAVONE inactive; negative | [4] inactive; negative | Test System: AMES SALMONELLA TYPHIMURIUM, Strain/Indicator: TA1537, Metabolic Activation: RAT, LIVER, S-9, PHENOBARBITAL AND BETA-NAPHTHOFLAVONE inactive; negative | Test System: E. COLI, Strain/Indicator: WP2UVRA/PKM101, Metabolic Activation: NONE inactive; negative | Test System: E. COLI, Strain/Indicator: WP2UVRA/PKM101, Metabolic Activation: RAT, LIVER, S-9, PHENOBARBITAL AND BETA-NAPHTHOFLAVONE inactive; negative | Test System: E. COLI, Strain/Indicator: WP2UVRA, Metabolic Activation: NONE inactive; negative | Test System: E. COLI, Strain/Indicator: WP2UVRA, Metabolic Activation: RAT, LIVER, S-9, PHENOBARBITAL AND BETA-NAPHTHOFLAVONE inactive; negative

O=C(Nc1ccc(Cl)cc1)Nc1ccc(Cl)c(Cl)c1
inactive: Test System: AMES SALMONELLA TYPHIMURIUM, Strain/Indicator: TA98, Metabolic Activation: HAMSTER, LIVER, S-9, AROCLOR 1254 (10%) inactive; negative | [1] inactive; negative | Test System: AMES SALMONELLA TYPHIMURIUM, Strain/Indicator: TA98, Metabolic Activation: RAT, LIVER, S-9, AROCLOR 1254 (10%) inactive; negative | Test System: AMES SALMONELLA TYPHIMURIUM, Strain/Indicator: TA100, Metabolic Activation: HAMSTER, LIVER, S-9, AROCLOR 1254 (10%) inactive; negative | [2] inactive; negative | Test System: AMES SALMONELLA TYPHIMURIUM, Strain/Indicator: TA100, Metabolic Activation: RAT, LIVER, S-9, AROCLOR 1254 (10%) inactive; negative | Test System: AMES SALMONELLA TYPHIMURIUM, Strain/Indicator: TA1535, Metabolic Activation: HAMSTER, LIVER, S-9, AROCLOR 1254 (10%) inactive; negative | [3] inactive; negative | Test System: AMES SALMONELLA TYPHIMURIUM, Strain/Indicator: TA1535, Metabolic Activation: RAT, LIVER, S-9, AROCLOR 1254 (10%) inactive; negative | Test System: AMES SALMONELLA TYPHIMURIUM, Strain/Indicator: TA1537, Metabolic Activation: HAMSTER, LIVER, S-9, AROCLOR 1254 (10%) inactive; negative | [4] inactive; negative | Test System: AMES SALMONELLA TYPHIMURIUM, Strain/Indicator: TA1537, Metabolic Activation: RAT, LIVER, S-9, AROCLOR 1254 (10%) inactive; negative
